A short description of data set [1]: Plasma and total brain concentrations at 1 h post single oral administration to female C57BL/6 mice. In kind it is in vivo. To be noted: mouse, 10 mg/kg oral gavage; for Kp at 1 h: brain/plasma, read-out: brain to plasma ratio. The method, then: The appropriate amount of test article was dissolved 10% dimethylacetamide (DMA)/90% (20% hydroxypropyl-β-cyclodextrin (HP-B-CD) w/v in water to obtain a final concentration of 1 mg/mL for oral dosing. Sonication, vortex, and homogenization was used as needed. Three female C57BL/6 mice aged 7-9 weeks (20-30 grams) were dosed by oral gavage 10 mg/kg solution of the test article.
Concentrations of test compounds in the plasma and brain samples (use plasma and brain homogenate standard curve for all samples appropriately) were analyzed using LC-MS/MS. Compounds having a brain-to-plasma ratio of greater than 0.2 were considered brain penetrant.

The nature of data set [2]: Plasma and total brain concentrations at 1 h post single oral administration to male Wistar Han rats. In kind it is in vivo. To be noted: rat, 10 mg/kg oral gavage; for Kp at 1 h: brain/plasma, read-out: brain to plasma ratio. The procedure:
The appropriate amount of test article was dissolved 10% dimethylacetamide (DMA)/90% (20% hydroxypropyl-β-cyclodextrin (HP-B-CD) w/v in water to obtain a final concentration of 1 mg/mL for oral dosing. Sonication, vortex, and homogenization was used as needed. Three male Wistar Han rats aged 6-8 weeks (200-300 grams) were dosed by oral gavage 10 mg/kg solution of the test article.
At 1 h, blood and whole brains were collected. Blood was collected via cardiac puncture into tubes containing potassium EDTA and kept on ice until plasma collection. Plasma was obtained via centrifugation at 4000×g for five minutes at 4° C. Following exsanguination, animals were transcardially perfused with approximately 20 mL of saline, and brains were collected and immediately frozen. Plasma and brains were at −75±15° C. until analysis.
The desired serial concentrations of working solutions were achieved by diluting stock solution of analyte with 50% acetonitrile in water solution. 5 μL of working solutions (2, 5, 10, 50, 100, 500, 1000, 5000, 10000 ng/mL) were added to 50 μL of the male blank Wistar Han rats plasma, brain homogenate to achieve calibration standards of 0.2˜1000 ng/mL (0.2, 0.5, 1, 5, 10, 50, 100, 500, 1000 ng/mL) in a total volume of 55 μL. Four quality control samples at 0.5 ng/mL, 1 ng/mL, 50 ng/mL and 800 ng/mL for plasma, brain homogenate were prepared independently of those used for the calibration curves. These QC samples were prepared on the day of analysis in the same way as calibration standards.
55 μL of standards, 55 μL of QC samples and 55 μL of unknown samples (50 μL of plasma, brain homogenate with 5 μL of blank solution) were added to 200 μL of acetonitrile containing IS mixture for precipitating protein respectively. Then the samples were vortexed for 30 s. After centrifugation at 4° C., 4700 rpm for 15 min, the supernatant was diluted 3 times with water. 10 μL of diluted supernatant was injected into the LC/MS/MS system for quantitative analysis.

Where [3] appears, read: plasma, read-out: Mean [plasma].

Each structure is given as a SMILES string.

As for `C=CC(=O)N1CCC[C@@H](c2c(F)cc(C(N)=O)c3[nH]c4c(c23)CCC4)C1` [Compound 10-2, (S)-8-(1-acryloylpiperidin-3-yl)-7-fluoro-1,2,3,4-tetrahydrocyclo-penta[b]indole-5-carboxamide], the concentration at 1 h in data set [1] (brain, read-out: Mean [brain]) was found to be 72 ng/g; in data set [1] (setting [3]) it was 191 ng/mL; in data set [2] (brain, read-out: Mean [brain]), 116 ng/mL; in data set [2] (setting [3]) it was 421 ng/mL. Also, the figures for the Kp at 1 h in data set [1] and in data set [2] were 0.37 and 0.29, respectively.

Turning to `C=CC(=O)N1CCCC(c2c(F)cc(C(N)=O)c3[nH]c4c(c23)CCCCC4)C1` (single isomer, unassigned) [Compound 5-6], the concentration at 1 h in data set [1] (brain, read-out: Mean [brain]) was determined as 16 ng/g; in data set [1] (setting [3]), 42 ng/mL; in data set [2] (brain, read-out: Mean [brain]) it was 84 ng/mL; in data set [2] (setting [3]) it was 196 ng/mL. Further, the Kp at 1 h in data set [1] came out at 0.4; in data set [2], 0.43.

Regarding `C=CC(=O)N1CCC[C@@H](c2c(F)cc(C(N)=O)c3[nH]c4c(c23)CC2(CC4)CC2)C1` [Compound 6-2, (S)-5-(1-acryloylpiperidin-3-yl)-6-fluoro-1,2,4,9-tetrahydrospiro[carbazole-3,1′-cyclopropane]-8-carboxamide], the concentration at 1 h worked out at 18 ng/g in data set [1] (brain, read-out: Mean [brain]); 78 ng/mL in data set [1] (setting [3]); 108 ng/mL in data set [2] (brain, read-out: Mean [brain]); 395 ng/mL in data set [2] (setting [3]). Further, the Kp at 1 h amounted to 0.24 in data set [1] and 0.28 in data set [2].

Source of the values: patent US20220009920A1 (GB005, Inc., priority 2020, published 2022).
